This is an account of results in patent US20080221082A1, “Ligands of Integrin Receptors” (priority 2000, published 2008).

One data set addresses T1, integrin αvβ3 (Homo sapiens, UniProt P05106+P06756).
T1 construct: from tissue; host or cells: human placenta
Kind of data set: Integrin αvβ3 assay (competition between vitronectin and the test substance for binding to solid phase-bound integrin αvβ3). The settings on record: integrin αvβ3 from human placenta; human vitronectin as competing ligand; result in words only. On the procedure: For the identification and assessment of integrin αvβ3 ligands, a test system was used which was based on competition between the natural integrin αvβ3 ligand vitronectin and the test substance for binding to solid phase-bound integrin αvβ3.
• Microtiter plates coated with 250 ng/ml of integrin αvβ3 in 0.05 M NaHCO3 pH 9.2; 0.1 ml/well; • saturation with 1% powdered milk/assay buffer; 0.3 ml/well; 0.5 h/RT • 3× washing with 0.05% Tween 20/assay buffer • test substance in 0.1% powdered milk/assay buffer, 50 μl/well+0 μg/ml or 2 μg/ml of human vitronectin (Boehringer Ingelheim T007) in 0.1% powdered milk/assay buffer, 50 μl/well; 1 h/RT • 3× washing with 0.05% Tween 20/assay buffer • 1 μg/ml of anti human vitronectin antibody coupled to peroxidase (Kordia SAVN-APHRP) in 0.1% powdered milk/assay buffer; 0.1 ml/well; 1 h/RT • 3× washing with 0.05% Tween 20/assay buffer • 0.1 ml/well of peroxidase substrate • stop reaction with 0.1 ml/well of 2 M H2SO4 • measurement of the absorption at 450 nm
Integrin αvβ3: Human placenta is solubilized with Nonidet and integrin αvβ3 affinity-purified on a GRGDSPK matrix (elution with EDTA). Impurities due to integrin αIIbβ3 and human serum albumin, and the detergent and EDTA are removed by anion-exchange chromatography.
Assay buffer: 50 mM Tris pH 7.5; 100 mM NaCl; 1 mM CaCl2; 1 mM MgCl2; 10 μM MnCl2 […]

For `CC(C)(C)OC(=O)CC1CCC(=O)N(CC(=O)NCc2ccc(Nc3nc4ccccc4[nH]3)cc2)c2ccccc21` (centres unmarked) [Example 99, tert-Butyl [1-(2-{[4-(1H-benzimidazole-2-ylamino)benzyl]amino}-2-oxoethyl)-2-oxo-2,3,4,5-tetrahydro-1H-1-benzazepine-5-yl]acetate], the melting point (in general, the temperature of the solid-liquid transition) was 231 °C (dec.).

`O=C(O)CC1CCC(=O)N(CC(=O)NCc2ccc(-c3nc4ccccc4[nH]3)cc2)c2ccccc21` (centres unmarked) [Example VII, [1-(2-{[4-(1H-Benzimidazol-2-yl)benzyl]amino}-2-oxoethyl)-2-oxo-2,3,4,5-tetrahydro-1H-1-benzazepin-5-yl]acetic acid]: on integrin αvβ3, the “IC50 values (concentration of the ligand at which 50% of the ligand is displaced)” value was “best result”.
